Source: the NIST ThermoML archive (doi:10.1016/j.jct.2006.06.008)
Numbers after ± are expanded uncertainties.

Assays:
[1] = xn = mol fraction of the nth substance listed; settings: 101 kPa, Liquid
[2] = 101 kPa, Liquid

C1CCCC1 [cyclopentane] + CCO
[1]
Settings | mass density, 293.15 K [kg/m3] | mass density, 298.15 K [kg/m3] | mass density, 303.15 K [kg/m3] | speed of sound, 293.15 K [m/s] | speed of sound, 298.15 K [m/s] | speed of sound, 303.15 K [m/s] | viscosity, 293.15 K [mPa·s] | viscosity, 298.15 K [mPa·s] | viscosity, 303.15 K [mPa·s]
x1 = 0.0488 | 784.97 ± 0.47 | 780.62 ± 0.48 | 776.23 ± 0.48 | 1157 ± 2 | 1139 ± 2 | 1122 ± 2 | 1.148 ± 0.028 | 1.047 ± 0.026 | 0.956 ± 0.024
x1 = 0.1011 | 780.67 ± 0.48 | 776.25 ± 0.49 | 771.78 ± 0.49 | 1155 ± 2 | 1137 ± 2 | 1118 ± 2 | 1.07 ± 0.027 | 0.977 ± 0.024 | 0.896 ± 0.023
x1 = 0.1932 | 774.13 ± 0.49 | 769.58 ± 0.5 | 764.99 ± 0.51 | 1154 ± 2 | 1135 ± 2 | 1116 ± 2 | 0.955 ± 0.024 | 0.875 ± 0.022 | 0.806 ± 0.021
x1 = 0.2926 | 768.22 ± 0.51 | 763.55 ± 0.52 | 758.83 ± 0.52 | 1157 ± 2 | 1136 ± 2 | 1116 ± 2 | 0.822 ± 0.021 | 0.756 ± 0.02 | 0.696 ± 0.018
x1 = 0.3897 | 763.12 ± 0.53 | 758.34 ± 0.53 | 753.5 ± 0.54 | 1162 ± 2 | 1140 ± 2 | 1118 ± 2 | 0.735 ± 0.019 | 0.679 ± 0.018 | 0.628 ± 0.017
x1 = 0.489 | 758.81 ± 0.54 | 753.94 ± 0.55 | 749.01 ± 0.56 | 1168 ± 2 | 1146 ± 2 | 1123 ± 2 | 0.659 ± 0.018 | 0.609 ± 0.016 | 0.564 ± 0.015
x1 = 0.5973 | 754.7 ± 0.56 | 749.75 ± 0.57 | 744.74 ± 0.58 | 1177 ± 2 | 1153 ± 2 | 1130 ± 2 | 0.582 ± 0.016 | 0.54 ± 0.015 | 0.502 ± 0.014
x1 = 0.7012 | 751.29 ± 0.58 | 746.28 ± 0.59 | 741.2 ± 0.59 | 1186 ± 2 | 1162 ± 2 | 1137 ± 2 | 0.521 ± 0.015 | 0.487 ± 0.014 | 0.456 ± 0.013
x1 = 0.7992 | 748.53 ± 0.6 | 743.48 ± 0.6 | 738.38 ± 0.61 | 1196 ± 2 | 1171 ± 2 | 1146 ± 2 | 0.475 ± 0.014 | 0.446 ± 0.013 | 0.42 ± 0.012
x1 = 0.8886 | 746.41 ± 0.61 | 741.36 ± 0.62 | 736.25 ± 0.63 | 1208 ± 2 | 1182 ± 2 | 1156 ± 2 | 0.448 ± 0.013 | 0.423 ± 0.012 | 0.4 ± 0.012
x1 = 0.9495 | 745.36 ± 0.62 | 740.33 ± 0.63 | 735.23 ± 0.64 | 1217 ± 2 | 1192 ± 2 | 1166 ± 2 | 0.44 ± 0.013 | 0.417 ± 0.012 | 0.394 ± 0.012
x1 = 1 | 744.52 ± 0.63 | 739.55 ± 0.64 | 734.54 ± 0.65 | 1232 ± 2 | 1206 ± 2 | 1180 ± 2 | 0.439 ± 0.013 | 0.416 ± 0.012 | 0.394 ± 0.012

CCO [ethanol]
[2]
Settings | mass density [kg/m3] | speed of sound [m/s] | viscosity [mPa·s]
293.15 K | 789.75 ± 0.46 | 1162 ± 3 | 1.187 ± 0.029
298.15 K | 785.46 ± 0.47 | 1145 ± 2 | 1.082 ± 0.027
303.15 K | 781.15 ± 0.47 | 1128 ± 2 | 0.987 ± 0.025

CCO [ethanol] + C1CCCC1
[1], x2 = 0
Settings | mass density [kg/m3] | speed of sound [m/s] | viscosity [mPa·s]
293.15 K | 789.75 ± 0.46 | 1162 ± 2 | 1.187 ± 0.029
298.15 K | 785.46 ± 0.47 | 1145 ± 2 | 1.082 ± 0.027
303.15 K | 781.15 ± 0.47 | 1128 ± 2 | 0.987 ± 0.025

CCO [ethanol] + C1CCCCC1
[1], x2 = 0
Settings | mass density [kg/m3] | speed of sound [m/s] | viscosity [mPa·s]
293.15 K | 789.75 ± 0.46 | 1162 ± 3 | 1.187 ± 0.029
298.15 K | 785.46 ± 0.47 | 1145 ± 2 | 1.082 ± 0.027
303.15 K | 781.15 ± 0.47 | 1128 ± 2 | 0.987 ± 0.025

CCCO [propan-1-ol]
[2]
Settings | mass density [kg/m3] | speed of sound [m/s] | viscosity [mPa·s]
293.15 K | 803.59 ± 0.56 | 1223 ± 2 | 2.159 ± 0.051
298.15 K | 799.58 ± 0.57 | 1206 ± 2 | 1.915 ± 0.046
303.15 K | 795.55 ± 0.57 | 1189 ± 2 | 1.713 ± 0.042

CCCO [propan-1-ol] + C1CCCC1
[1], x2 = 0
Settings | mass density [kg/m3] | speed of sound [m/s] | viscosity [mPa·s]
293.15 K | 803.59 ± 0.56 | 1223 ± 2 | 2.159 ± 0.051
298.15 K | 799.58 ± 0.57 | 1206 ± 2 | 1.915 ± 0.046
303.15 K | 795.55 ± 0.57 | 1189 ± 2 | 1.713 ± 0.042

CCCO [propan-1-ol] + C1CCCCC1
[1], x2 = 0
Settings | mass density [kg/m3] | speed of sound [m/s] | viscosity [mPa·s]
293.15 K | 803.59 ± 0.56 | 1223 ± 2 | 2.159 ± 0.051
298.15 K | 799.58 ± 0.57 | 1206 ± 2 | 1.915 ± 0.046
303.15 K | 795.55 ± 0.57 | 1189 ± 2 | 1.713 ± 0.042
